Reference: patent publication US10874108B2, “Anti-microbial compositions” (5D HEALTH PROTECTION GROUP LTD, priority 2016, dated 2020)
Read-outs that look alike come from different tables or passages of the source.

Columns and labels:
[1] = test system: S. aureus 24-hour CDC biofilms; assay: Colonies after exposure of 24-hour CDC biofilms to EDTA compounds; assay type: cell-based
[2] = test system: P. aeruginosa 24-hour CDC biofilms; assay: as above; assay type: cell-based
[3] = Displacement of metals from EDTA complexes by physiological saline; assay type: physicochemical
Experimental: Adding saline to the suspension of Ag4(EDTA), the suspension quickly precipitated a solid (AgCl). The precipitate was filtered off, washed with deionized water 4 times; and then dried in a vacuum oven at 50° C. in a dark flask to avoid exposure to direct light.
The displacement experiment described above was repeated for compounds 1-4 to provide the percent of the displacement of silver, copper, zinc from the EDTA complexes by physiological saline.

[4] = test system: P. aeruginosa biofilms; assay: CDC bioreactor biofilm LR/kill, EDTA compounds at 100 ppm silver; assay type: cell-based; settings: 100 ppm of silver, exposed 24 hours
Experimental: (§1) Microbial cultures were exposed to compounds for 24 hours. Compounds were diluted according to 100 ppm of silver. Biofilms were formed using the CDC bioreactor. Samples were performed in triplicate.

[5] = test system: S. aureus biofilms; assay: as above; assay type: cell-based; settings: 100 ppm of silver, exposed 24 hours
Experimental: as §1

[6] = test system: cells; assay: Indirect cytotoxicity, agar diffusion method
[7] = test system: cells; assay: Direct cytotoxicity, Neutral Red Uptake assay
[8] = test system: cells
[9] = test system: P. aeruginosa 24-hour biofilm
Experimental: (§2) Minimum inhibitory concentration (MIC), minimum biocidal concentration (MBC) and minimum biofilm eradication (MBEC) were determined. Values represent a percentage of the stock antimicrobial solution (8%).

[10] = test system: S. aureus 24-hour biofilm
Experimental: as §2

[11] = test system: P. aeruginosa biofilms; settings: 4%
Experimental: (§3) The Mean Log10 density of untreated controls was calculated (±standard deviation).

[12] = test system: S. aureus biofilms; settings: 4%
Experimental: as §3

[13] = test system: E. faecalis ATCC 29212 biofilm; assay: MBEC model (ASTM E2799), liquid formulas; assay type: cell-based; settings: 4%, treated 24 hours
Experimental: (§4) The MBEC model (ASTM E2799) was used to assess the anti-biofilm efficacy of the liquid formulas. Biofilms were grown on polystyrene pegs in the MBEC model for either 24 or 48 hours before treatment. Using the liquid form of the EDTA complexes 24- and 48-hour biofilms were tested (Table 20).
(§5) 24- and 48-hour biofilms were formed using MBEC plate method and treated for 24 hours. Technical replicates n=3. Log reduction (LR) values show±standard error (SE) of LR value.

[14] = test system: P. aeruginosa NCTC 10662 biofilm; assay: MBEC model (ASTM E2799), liquid formulas; assay type: cell-based; settings: 4%, treated 24 hours; for LR: hydrate
Experimental: as §4, §5

[15] = test system: S. aureus ATCC 29213 biofilm; assay: MBEC model (ASTM E2799), liquid formulas; assay type: cell-based; settings: 4%, treated 24 hours
Experimental: as §4, §5

[16] = test system: S. aureus MRSA BAA-43 biofilm; assay: MBEC model (ASTM E2799), liquid formulas; assay type: cell-based; settings: 4%, treated 24 hours
Experimental: as §4, §5

[17] = test system: S. epidermidis ATCC 35984 biofilm; assay: MBEC model (ASTM E2799), liquid formulas; assay type: cell-based; settings: 4%, treated 24 hours
Experimental: as §4, §5

[18] = test system: cells; remark: listed apart in the source
[19] = 24-Hour Biofilms, Treatment Time 1
[20] = 24-Hour Biofilms, Treatment Time 5
[21] = 24-Hour Biofilms, Treatment Time 15
[22] = 72-Hour Biofilms, Treatment Time 1
[23] = 72-Hour Biofilms, Treatment Time 5
[24] = 72-Hour Biofilms, Treatment Time 15

Compound: O=C([O-])CN(CCN(CC(=O)[O-])CC(=O)[O-])CC(=O)[O-].[Cu+2].[Na+].[Na+] [Cu—Na-EDTA, reference compound]
- Number of colonies detected [1]: 0 Cfu/ml
- Number of colonies detected [2]: 0 Cfu/ml

Compound: O=C([O-])CN(CCN(CC(=O)[O-])CC(=O)[O-])CC(=O)[O-].[Ag+].[Cu+2].[Na+] [Compound 1, AgCuNaEDTA]
- Displacement (%) Copper [3]: 53.49 ± 5.56%
- Displacement (%) Silver [3]: 81.37 ± 4.29%
- Kill % [4]: 99.99%
- LR [4]: 3.88 ± 0.15
- LR ([4]; listed as Ag/Cu/NaEDTA): 3.5
- Kill % [5]: 100%
- Lysis Index ([6]; 25 ppm): 1
- Zone Index ([6]; 25 ppm): 2
- Lysis Index ([6]; 50 ppm): 1
- Zone Index ([6]; 50 ppm): 3
- Lysis Index ([6]; 100 ppm): 1
- Zone Index ([6]; 100 ppm): 3
- Interpretation ([7]; 25 ppm): Cytotoxic (if the percentage viability is less than 70% of the untreated control, then the substance is considered cytotoxic)
- Percentage of Control/Percentage Viability (%) ([7]; 25 ppm): 51.54 ± 9.44%
- Interpretation ([7]; 50 ppm): Cytotoxic (if the percentage viability is less than 70% of the untreated control, then the substance is considered cytotoxic)
- Percentage of Control/Percentage Viability (%) ([7]; 50 ppm): 53.66 ± 9.48%
- Interpretation ([7]; 100 ppm): Cytotoxic (if the percentage viability is less than 70% of the untreated control, then the substance is considered cytotoxic)
- Percentage of Control/Percentage Viability (%) ([7]; 100 ppm): 52.57 ± 8.97%

Compound: Oc1ccccc1 [Phenol]
- Lysis Index [8]: 3
- Zone Index [8]: 5

Compound: O.O=C([O-])CN(CCN(CC(=O)[O-])CC(=O)[O-])CC(=O)[O-].[Na+].[Na+].[Na+].[Na+] [Tetrasodium EDTA, ethylenediaminetetraacetic acid tetrasodium salt hydrate]
- MBC ([9]; 1 min): 50 percentage of the stock antimicrobial solution (8%)
- MIC ([9]; 1 min): 25 percentage of the stock antimicrobial solution (8%)
- MBC ([9]; 30 min): 50 percentage of the stock antimicrobial solution (8%)
- MIC ([9]; 30 min): 12.5 percentage of the stock antimicrobial solution (8%)
- MBC ([9]; 1 h): 25 percentage of the stock antimicrobial solution (8%)
- MBEC ([9]; 1 h): 6.25 percentage of the stock antimicrobial solution (8%)
- MIC ([9]; 1 h): 25 percentage of the stock antimicrobial solution (8%)
- MBC ([9]; 24 h): 6.25 percentage of the stock antimicrobial solution (8%)
- MBEC ([9]; 24 h): 6.25 percentage of the stock antimicrobial solution (8%)
- MIC ([9]; 24 h): 6.25 percentage of the stock antimicrobial solution (8%)
- MBC ([10]; 1 min): 50 percentage of the stock antimicrobial solution (8%)
- MIC ([10]; 1 min): 25 percentage of the stock antimicrobial solution (8%)
- MBC ([10]; 30 min): 50 percentage of the stock antimicrobial solution (8%)
- MIC ([10]; 30 min): 12.5 percentage of the stock antimicrobial solution (8%)
- MBC ([10]; 1 h): 25 percentage of the stock antimicrobial solution (8%)
- MBEC ([10]; 1 h): 6.25 percentage of the stock antimicrobial solution (8%)
- MIC ([10]; 1 h): 25 percentage of the stock antimicrobial solution (8%)
- MBC ([10]; 24 h): 6.25 percentage of the stock antimicrobial solution (8%)
- MBEC ([10]; 24 h): 6.25 percentage of the stock antimicrobial solution (8%)
- MIC ([10]; 24 h): 6.25 percentage of the stock antimicrobial solution (8%)
- Kill % [11, 19]: 83.018%
- LR [11, 19]: 0.77 ± 0.08
- Kill % [11, 20]: 97.92%
- LR [11, 20]: 1.68 ± 0.05
- Kill % [11, 21]: 99.51%
- LR [11, 21]: 2.31 ± 0.10
- Kill % [11, 22]: 99.22%
- LR [11, 22]: 2.10 ± 0.05
- Kill % [11, 23]: 99.56%
- LR [11, 23]: 2.35 ± 0.02
- Kill % [11, 24]: 95.07%
- LR [11, 24]: 1.31 ± 0.12
- Kill % [12, 19]: 97.41%
- LR [12, 19]: 1.59 ± 1.56
- Kill % [12, 20]: 59.90%
- LR [12, 20]: 0.40 ± 0.05
- Kill % [12, 21]: 80.51%
- LR [12, 21]: 0.71 ± 0.11
- Kill % [12, 22]: 54.09%
- LR [12, 22]: 0.34 ± 0.37
- Kill % [12, 23]: 79.86%
- LR [12, 23]: 0.70 ± 0.05
- Kill % [12, 24]: 80.25%
- LR [12, 24]: 0.70 ± 0.02
- Kill % ([13]; 24-Hour Biofilm): 100%
- LR ([13]; 24-Hour Biofilm): 6.35
- Kill % ([13]; 48-Hour Biofilm): 100%
- LR ([13]; 48-Hour Biofilm): 6.40
- Kill % ([14]; 24-Hour Biofilm): 99.9998%
- LR ([14]; 24-Hour Biofilm): 5.94±3.43
- LR ([14]; 24-Hour Biofilm, listed as tEDTA): 5.94 ± 3.43
- Kill % ([14]; 48-Hour Biofilm): 99.9999%
- LR ([14]; 48-Hour Biofilm): 6.99±4.04
- LR ([14]; 48-Hour Biofilm, listed as tEDTA): 6.99 ± 4.04
- Kill % ([15]; 24-Hour Biofilm): 100%
- LR ([15]; 24-Hour Biofilm): 6.44
- Kill % ([15]; 48-Hour Biofilm): 100%
- LR ([15]; 48-Hour Biofilm): 6.50
- Kill % ([16]; 24-Hour Biofilm): 100%
- LR ([16]; 24-Hour Biofilm): 5.40
- Kill % ([16]; 48-Hour Biofilm): 100%
- LR ([16]; 48-Hour Biofilm): 6.43
- Kill % ([17]; 24-Hour Biofilm): 100%
- LR ([17]; 24-Hour Biofilm): 6.09
- Kill % ([17]; 48-Hour Biofilm): 100%
- LR ([17]; 48-Hour Biofilm): 6.41

Compound: O=C([O-])CN(CCN(CC(=O)[O-])CC(=O)[O-])CC(=O)[O-].[Ag+].[Ag+].[Cu+2] [Compound 2, Ag2CuEDTA]
- Displacement (%) Copper [3]: 41.37 ± 6.92%
- Displacement (%) Silver [3]: 77.99 ± 3.90%
- Number of colonies detected [1]: 0 Cfu/ml
- Number of colonies detected [2]: 0 Cfu/ml
- Kill % [4]: 99.95%
- LR [4]: 3.31 ± 0.01
- Kill % [5]: 99.99%
- LR [5]: 4.0 ± 0.20
- Lysis Index ([6]; 25 ppm): 1
- Zone Index ([6]; 25 ppm): 2
- Lysis Index ([6]; 50 ppm): 1
- Zone Index ([6]; 50 ppm): 2
- Lysis Index ([6]; 100 ppm): 1
- Zone Index ([6]; 100 ppm): 2
- Interpretation ([7]; 25 ppm): Non cytotoxic (if the percentage viability is less than 70% of the untreated control, then the substance is considered cytotoxic)
- Percentage of Control/Percentage Viability (%) ([7]; 25 ppm): 72.21 ± 3.74%
- Interpretation ([7]; 50 ppm): Non cytotoxic (if the percentage viability is less than 70% of the untreated control, then the substance is considered cytotoxic)
- Percentage of Control/Percentage Viability (%) ([7]; 50 ppm): 72.01 ± 7.41%
- Interpretation ([7]; 100 ppm): Non cytotoxic (if the percentage viability is less than 70% of the untreated control, then the substance is considered cytotoxic)
- Percentage of Control/Percentage Viability (%) ([7]; 100 ppm): 72.09 ± 17.57%

Compound: O=C([O-])CN(CCN(CC(=O)[O-])CC(=O)[O-])CC(=O)[O-].[Ag+].[Na+].[Zn+2] [Compound 3, AgZnNaEDTA]
- Displacement (%) Silver [3]: 82.32 ± 5.63%
- Displacement (%) Zinc [3]: 47.33 ± 13.29 %
- Number of colonies detected [1]: 0 Cfu/ml
- Number of colonies detected [2]: 0 Cfu/ml
- Kill % [4]: 99.97%
- LR [4]: 3.51 ± 0.04
- LR ([4]; listed as Ag/Zn/NaEDTA): 3.5
- Kill % [5]: 100%
- percentage viability [18]: 46.46-63.08%
- Lysis Index ([6]; 25 ppm): 1
- Zone Index ([6]; 25 ppm): 2
- Lysis Index ([6]; 50 ppm): 1
- Zone Index ([6]; 50 ppm): 2
- Lysis Index ([6]; 100 ppm): 1
- Zone Index ([6]; 100 ppm): 3
